The test system of one assay is PC-3. The assay can be described thus: MTT assay for cell cytotoxicity. It counts as cell-based, human. As to conditions: 72 h, at least three independent experiments, read-out: MTT assay (IC50 ± SD) PC-3. Here is the method:
(§1) All of synthesis compounds were evaluated cell cytotoxicity by using MTT colorimetric assay on PC-3 and DU-145 cell lines. DU-145 and PC-3 are human hormone-refractory (androgen-independent) prostatic cancer cell lines from American Type Culture Collection (HTB-81™, ATCC, Rockville, MD)^125 and Bioresource Collection and Research Center (60122, BCRC, Taiwan)^126, respectively. Two of the "classical" cell lines were cultivated in RPMI-1640 medium supplemented with 5% fetal bovine serum (v/v), 100 U/mL penicillin, and […] streptomycin. Approximately 2 x 10^3 cells were seeded into each well of a 96-well plate and incubated in 5% CO2 at 37 °C for 24 h. To evaluate the in vitro cytotoxicity, all the synthetic compounds were dissolved in DMSO, prepared immediately before the experiments and diluted into the complete medium before being added to each well of a 96-well plate. Each compound was then added to the culture medium for designated various concentrations (0.15, 0.5, 1.5, 5, 15 µM). After 72 h, an amount of 100 µL of MTT (1 mg/mL) was added to each well, and the samples were incubated at 37 °C for 4 h. After removing the MTT solution, 100 µL of DMSO was added to each well and incubated at 37 °C for another 20 mins. The absorbency at 560 nm was measured by using an ELISA reader.
(§2) Results are expressed as mean values of at least three independent experiments. The IC50 values of testing compounds were described in Table 1. Table1. Effects of 10-Chloro-12H-thiochromeno[2,3-c]quinolin -12-one derivatives on cytotoxicity by MTT assay.
Background: Tetrazolium dyes change colour on reduction, which living cells bring about.

The next assay deals with DU-145. Nature of the assay: MTT assay for cell cytotoxicity. It counts as cell-based, human. As to conditions: 72 h, at least three independent experiments, read-out: MTT assay (IC50 ± SD) DU-145. The protocol:
as §1, §2

Like-named read-outs stand apart in the source and are kept apart here.

Consider `CC[C@@]1(O)C(=O)OCc2c1cc1n(c2=O)Cc2cc3ccccc3nc2-1` [Camptothecin, reference compound], for which the IC50 in the assay with PC-3 (Homo sapiens) and with DU-145 (Homo sapiens) was 0.1 ± 0.01 µM throughout.

Regarding `CCN1CCN(c2nc3ccccc3c3c(=O)c4cc(Cl)ccc4sc23)CC1` [Compound 9, 10-Chloro-6-(4-ethylpiperazin-1-yl)-12H-thiochromeno[2,3-c]q uinolin-12-one], the IC50 with PC-3 (Homo sapiens) was 12 ± 3.41 µM; in the assay with DU-145 (Homo sapiens), more than 15 µM. For `O=c1c2cc(Cl)ccc2sc2c(N3CCSCC3)nc3ccccc3c12` [Compound 14, 10-Chloro-6-thiomorpholino-12H thiochromeno[2,3-c]quinolin-12-one] the same measures were more than 15 µM and more than 15 µM. For `O=c1c2cc(Cl)ccc2sc2c(N3CCCCC3)nc3ccccc3c12` [Compound 15, 10-Chloro-6-(piperidin-1-yl)-12H-thiochromeno[2,3-c]quinolin-12-one], in that order: more than 15 µM and 13.4 ± 2.87 µM. As to `O=c1c2cc(Cl)ccc2sc2c(N3CCC(O)CC3)nc3ccccc3c12` [Compound 16, 10-Chloro-6-(4-hydroxypiperidin-1-yl)-12H-thiochromeno[2,3-c]quinolin-12-one], the figures for the IC50 with PC-3 (Homo sapiens) and with DU-145 (Homo sapiens) were 9.55 ± 2.42 µM and 11.1 ± 4.18 µM, respectively. For `O=c1c2cc(Cl)ccc2sc2c(N3CCC(Cc4ccccc4)CC3)nc3ccccc3c12` [Compound 17, 6-(4-Benzylpiperidin-1-yl)-10-chloro-12H-thiochromeno[2,3-c]q uinolin-12-one] the same measures were more than 15 µM and more than 15 µM. As for `O=c1c2cc(Cl)ccc2sc2c(N3CCC(N4CCCCC4)CC3)nc3ccccc3c12` [Compound 18, 6-([1,4'-Bipiperidin]-1'-yl)-10-chloro-12H-thiochromeno[2,3-c]q uinolin-12-one], the figures for the IC50 with PC-3 (Homo sapiens) and in the assay on DU-145 (Homo sapiens) were 14.2 ± 1.41 µM and 10.2 ± 2.03 µM, respectively. In the case of `O=c1c2cc(Cl)ccc2sc2c(N3CCC(CCCC4CCNCC4)CC3)nc3ccccc3c12` [Compound 19, 10-Chloro-6-(4-(3-(piperidin-4-yl)propyl)piperidin-1yl)-12H-thi ochromeno[2,3-c]quinolin-12-one], the IC50 stood at 6.36 ± 0.17 µM in the assay with PC-3 (Homo sapiens) and 9.02 ± 1.2 µM with DU-145 (Homo sapiens). For `O=c1c2cc(Cl)ccc2sc2c(N3CCCC3)nc3ccccc3c12` [Compound 20, 10-Chloro-6-(pyrrolidin-1-yl)-12H-thiochromeno[2,3-c]quinolin-12-one], in that order: more than 15 µM and more than 15 µM. Turning to `O=C1CCCCN1c1nc2ccccc2c2c(=O)c3cc(Cl)ccc3sc12` [Compound 21, 10-chloro-6-(2-oxopiperidin-1-yl)-12H-thiochromeno[2,3-c]quin olin-12-one], the IC50 in the assay on PC-3 (Homo sapiens) came to 9.55 ± 2.42 µM; in the assay on DU-145 (Homo sapiens), 11.1 ± 4.18 µM. For `CNc1nc2ccccc2c2c(=O)c3cc(Cl)ccc3sc12` [Compound N1, 10-Chloro-6-methylamino-12H-thiochromeno[2,3-c]quinolin-12-one], in that order: 14.5 ± 2.7 µM and 11.7 ± 5.15 µM. For `CCNc1nc2ccccc2c2c(=O)c3cc(Cl)ccc3sc12` [Compound N2, 10-Chloro-6-ethylamino-12H-thiochromeno[2,3-c]quinolin-12-one] the same measures were 5.18 ± 2.2 µM and 6.7 ± 1.62 µM. With `CCCNc1nc2ccccc2c2c(=O)c3cc(Cl)ccc3sc12` [Compound N3, 10-Chloro-6 propylamino-12H-thiochromeno[2,3-c]quinolin-1 2-one], the 50% inhibitory concentration (IC50) with PC-3 (Homo sapiens) came out at 7.41 ± 3.43 µM; in the assay with DU-145 (Homo sapiens) it was 7.64 ± 2.74 µM. For `CCCCNc1nc2ccccc2c2c(=O)c3cc(Cl)ccc3sc12` [Compound N4, 6-(Butylamino)-10-chloro-12H-thiochromeno[2,3-c]quinolin-1 2-one], in that order: 10.1 ± 1.32 µM and 10.3 ± 2.46 µM. For `CC(C)CNc1nc2ccccc2c2c(=O)c3cc(Cl)ccc3sc12` [Compound N5, 10-Chloro-6-isobutylamino-12H-thiochromeno[2,3-c]quinolin-12-one] the same measures were more than 15 µM and more than 15 µM. Turning to `CCC(CC)Nc1nc2ccccc2c2c(=O)c3cc(Cl)ccc3sc12` [Compound N6, 10-Chloro-6-(pentan-3-ylamino)-12H-thiochromeno[2,3-c]quin olin-12-one], the IC50 with PC-3 (Homo sapiens) and with DU-145 (Homo sapiens) was more than 15 µM in each case. Consider `O=c1c2cc(Cl)ccc2sc2c(NCCO)nc3ccccc3c12` [Compound N9, 10-Chloro-6-(2-ethanolamino)-12H-thiochromeno[2,3-c]quinol in-12-one], for which the figures for the IC50 in the assay on PC-3 and with DU-145 were 7.48 ± 3.35 µM and 11.6 ± 7.23 µM, respectively. For `O=c1c2cc(Cl)ccc2sc2c(NCCCO)nc3ccccc3c12` [Compound N10, 10-Chloro-6-(3-propanolamino)-12H-thiochromeno[2,3-c]quin olin-12-one], in that order: 6.31 ± 4.11 µM and 5.94 ± 2.03 µM. Regarding `O=c1c2cc(Cl)ccc2sc2c(NCCCCCO)nc3ccccc3c12` [Compound N11, 10-Chloro-6-(5-pentanolamino)-12H-thiochromeno[2,3-c]quin olin-12-one], the IC50 is 8.38 ± 3.39 µM with PC-3 and 4.95 ± 0.58 µM with DU-145. Regarding `CCC(CO)Nc1nc2ccccc2c2c(=O)c3cc(Cl)ccc3sc12` (centres unmarked) [Compound N12, 10-Chloro-6-((1-hydroxybutan-2yl)amino)-12H-thiochromeno[2,3-c]quinolin-12-one], the concentration for half-maximal inhibition (IC50) in the assay with PC-3 (Homo sapiens) is 7.05 ± 2.48 µM; with DU-145 (Homo sapiens), 6.74 ± 2.14 µM. As for `CC(C)CC(C)Nc1nc2ccccc2c2c(=O)c3cc(Cl)ccc3sc12` (centres unmarked) [Compound N13, 10-Chloro-6-((4-methylpentan-2yl)amino)-12H-thiochromeno[2,3-c]quinolin-12-one], the IC50 with PC-3 (Homo sapiens) turned out to be 10.4 ± 2.3 µM; in the assay on DU-145 (Homo sapiens), 14.2 ± 1.18 µM.

For `O=c1c2cc(Cl)ccc2sc2c(NCCN3CCOCC3)nc3ccccc3c12` [Compound N16, 10-Chloro-6-((2-morpholinoethyl)amino)-12H-thiochromeno[2,3-c]quinolin-12-one], the IC50 in the assay with PC-3 (Homo sapiens) and in the assay with DU-145 (Homo sapiens) was more than 15 µM each time. Consider `O=c1c2cc(Cl)ccc2sc2c(NC3Cc4ccccc4C3)nc3ccccc3c12` [Compound N20, 10-Chloro-6-((2,3-dihydro-1H-inden-2-yl)amino)-12H-thiochro meno[2,3-c]quinolin-12-one], for which the results for the IC50 with PC-3 (Homo sapiens) and with DU-145 (Homo sapiens) were 6.2 ± 2.52 µM and 4.86 ± 0.99 µM, respectively.

Turning to `O=c1c2cc(Cl)ccc2sc2c(NC3CCCCC3)nc3ccccc3c12` [Compound N21, 10-Chloro-6-(cyclohexylamino)-12H-thiochromeno[2,3-c]quino lin-12-one], the IC50 is 7.51 ± 0.22 µM in the assay with PC-3 (Homo sapiens) and 8.06 ± 2.08 µM with DU-145 (Homo sapiens). For `O=c1c2cc(Cl)ccc2sc2c(NC3CCN(Cc4ccccc4)CC3)nc3ccccc3c12` [Compound N22, 6-((1-Benzylpiperidin-4-yl)amino)-10-chloro-12H-thiochromen o[2,3-c]quinolin-12-one] the same measures were 6.47 ± 0.3 µM and 8.39 ± 1.84 µM. For `O=c1c2cc(Cl)ccc2sc2c(NCc3cccs3)nc3ccccc3c12` [Compound N23, 10-Chloro-6-((thiophen-2ylmethyl)amino)-12H-thiochromeno[2,3-c]quinolin-12-one] the same measures were more than 15 µM and 14.7 ± 3.84 µM.

For the compound `COc1cccc2c1C(=O)c1c(O)c3c(c(O)c1C2=O)C[C@@](O)(C(=O)CO)C[C@@H]3O[C@H]1C[C@H](N)[C@H](O)[C@H](C)O1` [Doxorubicin, reference compound], the IC50 in the assay on DU-145 (Homo sapiens) came to 0.12 ± 0.03 µM.

Usually IC50 stands for the midpoint of a concentration-inhibition curve.

These data come from patent EP3002287B1, “Thiochromeno[2,3-c]quinolin-12-one derivatives and their use as topoisomerase inhibitors” (National Defense Medical Center, priority 2014, dated 2016).
